Patent US7662896B2, “Fluorochemical sulfonamide surfactants” (3M Innovative Properties Company, priority 1999, dated 2010)

Tests used:
[1] = test system: SPF-bred Sprague Dawley rats; assay: 28-day oral toxicity study by daily gavage in the rat; format: in vivo; settings: 28 days daily oral gavage; 3 (C8), 10 (C6), 30 (C4) mg/kg body weight/day
Experimental: (§1) A 28-day oral toxicity study with perfluorooctanesulfonate (C8F17SO3^−) was conducted by daily gavage in the rat followed by 14 and 28 day recovery periods. The dose levels for the study were selected to be 0 mg/kg body weight/day for species control, and 3 mg/kg body weight/day for potassium perfluorooctanesulfonate. The potassium perfluorooctanesulfonate was formulated in 1% aqueous carboxymethyl cellulose and administered daily for 28 days by oral gavage to SPF-bred Sprague Dawley rats. A vehicle control group and a treated group were tested, each consisting of 8 male and 8 female rats. An extra 3 rats per sex per group were allowed 14 days of recovery, and another 3 rats per sex per group were allowed 28 days of recovery.

[2] = Surface tension in water (Test Procedure I, Kruss K12 Tensiometer); format: physicochemical; settings: for Surface Tension (dynes/cm) at Various Surfactant Concentrations: 10 ppm: 10 ppm in water; for Surface Tension (dynes/cm) at Various Surfactant Concentrations: 100 ppm: 100 ppm in water; for Surface Tension (dynes/cm) at Various Surfactant Concentrations: 1000 ppm: 1000 ppm in water; for Surface Tension (dynes/cm) at Various Surfactant Concentrations: 23 ppm: 23 ppm in water; for Surface Tension (dynes/cm) at Various Surfactant Concentrations: 83 ppm: 83 ppm in water; for Surface Tension (dynes/cm) at Various Surfactant Concentrations: 164 ppm: 164 ppm in water; for Surface Tension (dynes/cm) at Various Surfactant Concentrations: 273 ppm: 273 ppm in water; for Surface Tension (dynes/cm) at Various Surfactant Concentrations: 421 ppm: 421 ppm in water; for Surface Tension (dynes/cm) at Various Surfactant Concentrations: 617 ppm: 617 ppm in water; for Surface Tension (dynes/cm) at Various Surfactant Concentrations: 875 ppm: 875 ppm in water; for Surface Tension (dynes/cm) at Various Surfactant Concentrations: 1032 ppm: 1032 ppm in water; for Surface Tension (dynes/cm) at Various Surfactant Concentrations: 20 ppm: 20 ppm in water; for Surface Tension (dynes/cm) at Various Surfactant Concentrations: 200 ppm: 200 ppm in water; for Surface Tension (dynes/cm) at Various Surfactant Concentrations: 2000 ppm: 2000 ppm in water
Experimental: Test Procedure I—Surface Tension Determination
All surface tensions were determined using a Kruss K12 Tensiometer. […] The program was run using a Wilhelmy platinum plate (PL12) and glass sample vessel (GL7).

[3] = Amount of perfluoroalkylsulfonate in male rat liver tissue (HPLC/ESMS/MS); format: in vivo; settings: for Elimination from the body (in words): rat, tested as potassium salt
[4] = as above; format: in vivo; settings: for Amount (ppm) of Sulfonate Day 1N* / Amount (ppm) of Sulfonate Day 1 / Amount (ppm) of Sulfonate Day 14N* / Amount (ppm) of Sulfonate Day 14 / Amount (ppm) of Sulfonate Day 28N* / Amount (ppm) of Sulfonate Day 28: male rat liver; for Amount (ppm) of Sulfonate Day 1N*: normalized to a feeding level of 3 mg/kg body weight per day; for Amount (ppm) of Sulfonate Day 1: day 1 after 28 day dosing at 3 (C8), 10 (C6), 30 (C4) mg/kg/day; for Amount (ppm) of Sulfonate Day 14N* / Amount (ppm) of Sulfonate Day 28N*: normalized to 3 mg/kg body weight per day; for Amount (ppm) of Sulfonate Day 14: day 14 of recovery; for Amount (ppm) of Sulfonate Day 28: day 28 of recovery
Experimental: as §1
Extracted liver tissue samples from the sacrificed rats of the study were homogenized and extracted using an ion-pairing extraction procedure. The extracts were quantitatively analyzed using high-pressure liquid chromatography/electrospray tandem mass spectroscopy (HPLC/ESMS/MS) and evaluated.

[5] = Dynamic surface tension of water (Kruss Bubble Pressure Tensiometer BP2); format: physicochemical; settings: 0.5 weight % in water; for Dynamic Surface Tension (mN/m) at Indicated Bubble Frequency (Hz): 0.01: 0.01 Hz; for Dynamic Surface Tension (mN/m) at Indicated Bubble Frequency (Hz): 0.5: 0.5 Hz; for Dynamic Surface Tension (mN/m) at Indicated Bubble Frequency (Hz): 1.0: 1.0 Hz; for Dynamic Surface Tension (mN/m) at Indicated Bubble Frequency (Hz): 5.0: 5.0 Hz
Experimental: The dynamic surface tension of water containing 0.5 weight % FC-171 (C8F17SO2N(Et)(CH2CH2O)7.5CH3, for which the surface tension was measured in Comparative Example C2, was measured with a Kruss Bubble Pressure Tensiometer, Model BP2 (Kruss USA, Charlotte, N.C.). The results are shown in Table 11.

[6] = Wetting and film characterization on glass surface (Test Procedure III); format: physicochemical
Experimental: Test Procedure III—Wetting and Film Characterization on Glass Surface
A solution of the surfactant to be tested was prepared at 0.01% by weight in HPLC grade water. The surfactant solution pH was measured and if necessary, pH was adjusted to 9 by adding several drops of 1% NH4OH. Glass plates were cleaned using Windex and a squeegee. Cleaned plates placed on top of 5.1 cm by 5.1 cm by 10.2 cm wood supports, which were laid out in a parallel arrangement. Two glass plates were used for each surfactant solution and laid out adjacent to each other. Surfactant solution (10 drops) was placed on each of the two plates and observed for solution hydrophilic or hydrophobic characteristics. The solution was considered hydrophilic if it was spread out and hydrophobic if it beaded up. The surfactant solutions were allowed to air dry and the resulting film on the glass plate observed for solution autophilic or autophobic properties. The solution was considered autophilic if it dried as a sheet and autophobic if it dried in separate puddles. […] On one of the plates with the dried surfactant film was placed 10 drops of the same surfactant solution on top of the area with the dry film. […] On the other plate was placed 10 drops of HPLC grade water on top of the area with the dry film, and hydrophilic or hydrophobic characteristics were observed.

[7] = Contact angle measurement on glass cover slips (Test Procedure II); format: physicochemical
Experimental: Test Procedure II—Contact Angle Measurement
Glass cover slips were rinsed with HPLC water and allow to air dry. The surfactant to be tested was mixed at 0.01 weight % with HPLC water. The pH was measured and if below 9, the pH was adjust to 9 by adding several drops of 1% NH4OH. The surface tension of the surfactant solution was determined using Test Procedure I.
A clean, dry glass cover slip was placed in the clamp and lower to ˜1 mm above the surface of the surfactant/water solution. Velocity search was set at 6 mm/min and velocity measure was set at 4 mm/min. Immersion depth was at least 10 mm, depending on the size of the cover slip. Advancing and receding contact angles were measured with 3 cycles. The cover slip was allowed to dry in the clamp, above the solution, for ten minutes. Advancing and receding contact angles were measured a second time with 3 cycles.

[8] = 28 days following completion of feeding
[9] = 28 days following completion of feeding, normalized to the same feeding levels
[10] = immediately following completion of feeding
[11] = 0.01 weight % solution air dried on glass
[12] = 0.01 weight % solution, glass with a film of dried surfactant solution
[13] = 0.01 weight % surfactant solution in HPLC water

Molecule	Observed effects in treated rats [1]	Amount (ppm) of Sulfonate Day 1N* [4]	Amount (ppm) of Sulfonate Day 1 [4]	Amount (ppm) of Sulfonate Day 14N* [4]	Amount (ppm) of Sulfonate Day 14 [4]	Amount (ppm) of Sulfonate Day 28N* [4]	Amount (ppm) of Sulfonate Day 28 [4]	Surface Tension (dynes/cm) at Various Surfactant Concentrations: 23 ppm [2]	Surface Tension (dynes/cm) at Various Surfactant Concentrations: 83 ppm [2]	Surface Tension (dynes/cm) at Various Surfactant Concentrations: 164 ppm [2]	Surface Tension (dynes/cm) at Various Surfactant Concentrations: 273 ppm [2]	Surface Tension (dynes/cm) at Various Surfactant Concentrations: 421 ppm [2]	Surface Tension (dynes/cm) at Various Surfactant Concentrations: 617 ppm [2]	Surface Tension (dynes/cm) at Various Surfactant Concentrations: 875 ppm [2]	Surface Tension (dynes/cm) at Various Surfactant Concentrations: 1032 ppm [2]	Surface Tension (dynes/cm) at Various Surfactant Concentrations: 20 ppm [2]	Surface Tension (dynes/cm) at Various Surfactant Concentrations: 200 ppm [2]	Surface Tension (dynes/cm) at Various Surfactant Concentrations: 2000 ppm [2]	other results
O=S(=O)([O-])C(F)(F)C(F)(F)C(F)(F)C(F)(F)F.[K+] [Example C4F9SO3K, Potassium perfluorobutanesulfonate]	No clear systematic toxicity, nor organ dysfunction at macroscopic or microscopic levels were observed	0.31 ppm	3.09 ± 1.58 ppm	0.0126 ppm	0.126 ± 0.084 ppm	0.0025 ppm	0.025 ± 0.015 ppm	–	–	–	–	–	–	–	–	–	–	–	Surface Tension (dynes/cm) at Various Surfactant Concentrations: 10 ppm [2]: 70 dynes/cm; Surface Tension (dynes/cm) at Various Surfactant Concentrations: 100 ppm [2]: 67.5 dynes/cm; Surface Tension (dynes/cm) at Various Surfactant Concentrations: 1000 ppm [2]: 53 dynes/cm; Factor lower than C6F13SO3^− in liver [3, 8]: > 1400; Factor lower than C6F13SO3^− in liver [3, 9]: 4400; Factor lower than C6F13SO3^− in liver [3, 10]: > 100; Elimination from the body (in words) [3]: unexpectedly fast and effective elimination; Elimination from the body (in words) ([3]; listed as perfluorobutylsulfonate): eliminates from the body much more effectively than perfluorohexylsulfonate and even more effectively than perfluorooctylsulfonate
CCN(CCOCCOCCOCCOCCOCCOCCOC)S(=O)(=O)C(F)(F)C(F)(F)C(F)(F)C(F)(F)C(F)(F)C(F)(F)C(F)(F)C(F)(F)F [FC-171, C8F17SO2N(C2H5)(CH2CH2O)7CH3]	–	–	–	–	–	–	–	33.5 dynes/cm	21 dynes/cm	20.5 dynes/cm	19.5 dynes/cm	19 dynes/cm	19 dynes/cm	19 dynes/cm	19 dynes/cm	–	–	–	Dynamic Surface Tension (mN/m) at Indicated Bubble Frequency (Hz): 0.01 [5]: 51 mN/m; Dynamic Surface Tension (mN/m) at Indicated Bubble Frequency (Hz): 0.5 [5]: 67 mN/m; Dynamic Surface Tension (mN/m) at Indicated Bubble Frequency (Hz): 1.0 [5]: 70 mN/m; Dynamic Surface Tension (mN/m) at Indicated Bubble Frequency (Hz): 5.0 [5]: 71 mN/m
C4F9SO2N(CH3)(CH2CH2O)7.5CH3 [Example 1]	–	–	–	–	–	–	–	31 dynes/cm	24 dynes/cm	23 dynes/cm	22.5 dynes/cm	22 dynes/cm	21.5 dynes/cm	20 dynes/cm	20 dynes/cm	–	–	–	Dynamic Surface Tension (mN/m) at Indicated Bubble Frequency (Hz): 0.01 [5]: 21 mN/m; Dynamic Surface Tension (mN/m) at Indicated Bubble Frequency (Hz): 0.5 [5]: 22 mN/m; Dynamic Surface Tension (mN/m) at Indicated Bubble Frequency (Hz): 1.0 [5]: 22.5 mN/m; Dynamic Surface Tension (mN/m) at Indicated Bubble Frequency (Hz): 5.0 [5]: 23 mN/m; Surface tension in water compared with the C8F17 analog (in words) ([2]; water, plotted against concentration in FIGS. 3-5, 7, 8): very similar to that found when using the C8F17 segment
CN(CC(=O)[O-])S(=O)(=O)C(F)(F)C(F)(F)C(F)(F)C(F)(F)F.[K+] [C4F9SO2N(Et)CH2CO2K, C4F9SO2N(CH3)CH2CO2K]	–	–	–	–	–	–	–	–	–	–	–	–	–	–	–	68.5 dynes/cm	57.4 dynes/cm	44.4 dynes/cm	–
O=S(=O)(O)C(F)(F)C(F)(F)C(F)(F)C(F)(F)C(F)(F)C(F)(F)F [C6F13SO3^−, perfluorohexanesulfonate]	comparable, but less persistent than those of Comparative Example C22	98 ppm	327 ± 52 ppm	19 ppm	61.9 ± 11.7 ppm	11 ppm	36.3 ± 7.4 ppm	–	–	–	–	–	–	–	–	–	–	–	Factor lower than C8F17SO3^− in liver [4, 8]: 6.5; Factor lower than C8F17SO3^− in liver [4, 9]: 21.5; Factor lower than C8F17SO3^− in liver [4, 10]: 1.3
CCN(CC(=O)[O-])S(=O)(=O)C(F)(F)C(F)(F)C(F)(F)C(F)(F)C(F)(F)C(F)(F)C(F)(F)C(F)(F)F.[K+] [FC-129, C8F17SO2N(C2H5)CH2CO2^−K^+]	–	–	–	–	–	–	–	29.5 dynes/cm	29 dynes/cm	24 dynes/cm	17.5 dynes/cm	16 dynes/cm	15.5 dynes/cm	16 dynes/cm	16.5 dynes/cm	49 dynes/cm	23 dynes/cm	17 dynes/cm	Dried film clarity [6, 11]: clear; Dried film: autophilic or autophobic [6, 11]: autophilic; Solution on clean glass: hydrophilic or hydrophobic ([6]; 0.01 weight % solution in HPLC grade water): hydrophobic; Characteristic the dried film gave to water and to the surfactant solution ([6]; 10 drops placed on the dried film): hydrophilic; Advancing CA on Dried Surfactant [7, 12]: 64.6 °; Receding CA on Dried Surfactant [7, 12]: 12.2 °; Advancing CA on Clean Glass [7, 13]: 61.6 °; Receding CA on Clean Glass [7, 13]: 7 °
O=S(=O)([O-])C(F)(F)C(F)(F)C(F)(F)C(F)(F)C(F)(F)C(F)(F)C(F)(F)C(F)(F)F.[K+] [Example C8F17SO3K, potassium perfluorooctanesulfonate]	decreased body weight, decreased blood cholesterol, increased liver size, and hepatocyte hypertrophy	419 ppm	419 ± 86 ppm	309 ppm	309 ± 34 ppm	237 ppm	237 ± 25 ppm	–	–	–	–	–	–	–	–	–	–	–	Surface Tension (dynes/cm) at Various Surfactant Concentrations: 10 ppm [2]: 67.7 dynes/cm; Surface Tension (dynes/cm) at Various Surfactant Concentrations: 100 ppm [2]: 54.1 dynes/cm; Surface Tension (dynes/cm) at Various Surfactant Concentrations: 1000 ppm [2]: 33.1 dynes/cm
CN(CC(=O)[O-])S(=O)(=O)C(F)(F)C(F)(F)C(F)(F)C(F)(F)C(F)(F)C(F)(F)F.[K+] [C6F13SO2N(Et)CH2CO2K, C6F13SO2N(CH3)CH2CO2K]	–	–	–	–	–	–	–	–	–	–	–	–	–	–	–	48.2 dynes/cm	30.8 dynes/cm	15.5 dynes/cm	–
